Measurements taken from patent US20230021275A1, “Application of Nanosulfur in Tomato Fusarium Wilt Control” (Jiangnan University, priority 2021, published 2023).

How the values were obtained:
F. oxysporum = experiment: Growth of pathogen colonies on PDA plates; type: cell-based; conditions: 100 mg/L
Excerpt: This may be because the nanosulfur could induce the systemic acquired resistance of plants and the control effect of the nanosulfur on the tomato fusarium wilt was better than the direct bactericidal effect thereof.

[1] = test system: Fusarium oxysporum f sp. Lycopersici; experiment: Foliar application to tomatoes grown in infected soil (tomato fusarium wilt control); type: in vivo; conditions: foliar spraying 100 mg/L; for Fresh weight of above-ground part / Fresh weight of underground part / Incidence: 10 mL/plant, 6th and 8th week, 10th week
Excerpt: There were 5 levels of disease severity of tomatoes: 0: symptomless; 1: mildly stunted; 2: stunted; 3: leaves wilted and yellowed; and 4: dead. […] The highest disease severity level of tomatoes was Level 4. The total number of tomato plants in the treated group was 6. Test of biomass of above-ground part and underground part: Tomatoes were sampled destructively. The above-ground part and the underground part of the tomato were washed with ultrapure water three times. The above-ground part and the underground part of the tomato were dried up with filter paper. The above-ground part and the underground part were weighed using a balance. The obtained weights were respectively the biomass of the above-ground part and the underground part of the tomato. (1) Pathogenic bacteria (Fusarium oxysporum f sp. Lycopersici, the pathogen of tomato fusarium wilt) were added to dry soil at a concentration of 1×10^6 spores/g to obtain infected soil. (2) Tomato seeds were sowed in the infected soil. […] The cultivation was continued. In the meanwhile, tomato seeds were sowed in soil not infected with pathogenic bacteria, and cultivated normally with no sulfur solution applied, to obtain a healthy group. The cultivation of the tomatoes was continued until the 10th week. The tomatoes were examined for the disease severity. The tomatoes were sampled destructively. The fresh weights of the above-ground part and the underground part of the tomatoes were measured. The test results are as follows: (1) Pathogenic bacteria (F. oxysporum, the pathogen of tomato fusarium wilt) were added to dry soil at a concentration of 1×10^6 spores/g to obtain infected soil. (2) Tomato seeds were sowed in the infected soil. […] The cultivation was continued. In the meanwhile, tomato plants with no fertilizer applied were taken as the foliar disease group. When the tomatoes grew to the 10th week, the tomatoes were examined for the disease severity. The tomatoes were sampled destructively. The fresh weights of the above-ground part and the underground part of the tomatoes were measured.

SMILES | Antibacterial effect relative to that of the 30-SNPs (F. oxysporum; 6 days) [times] | Reduction of the diameter of the pathogenic bacteria colonies (F. oxysporum; 6 days of exposure, compared with the foliar disease group) [%] | Effect on fresh weights of above-ground and underground part (biomass) compared with the disease group [1] | Effect on the incidence of tomato fusarium wilt compared with the disease group [1] | Fresh weight of above-ground part [1] | Fresh weight of underground part [1] [b g] | Incidence [1]
Cc1cc(O)no1 [Hymexazol, hymexazol] | 3.05 | 34.5 | significantly increased | significantly reduced | 6.9 ± 0.9c g | 1.8 ± 0.5 | 0.42 ± 0.08cd
O=S(=O)([O-])[O-].[Na+].[Na+] [Sodium sulfate, sodium sulfate] |  |  | no significant effects |  | 5.5 ± 0.7 g·days | 1.7 ± 0.2 | 0.64 ± 0.10a
